Laboratory results: PubChem BioAssay (NCI)
“And” between values parts separate entries of the source, which are not always exact repeats. Equal entries are not always repeated.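 Growth conditions: 96-well plates. Treatment: test compound, 48 hours, 5 concentrations. Analysis: linear interpolation between bracketing concentrations; unreached endpoints set to highest concentration. Here, GI50 denotes the concentration required for 50% inhibition of growth. TGI denotes the concentration required for complete inhibition of growth.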

These molecules were tested on OVCAR-5 ovarian (assay: NCI tumour cell line growth inhibition, 48 h).

Structure (SMILES) | TGI [µM] | GI50 [µM]
COc1ccc(OCC(=O)O)c2c1CCCC2=O | > 100 | 
Cc1nc(Nc2ccc(Cl)cc2)sc1C(=O)NNC(=S)NN | 31.4 | 
CCOC(=O)N[C@H]1CCc2cc(OC)c(OC)c(OC)c2-c2ccc(SC)c(=O)cc21 | > 100 | < 0.01
Cc1ccc2nc(/C(=C/c3ccc(/C=C(\NC(=O)c4ccccc4)c4nc5ccc(C)cc5[nH]4)c(C)c3)NC(=O)c3ccccc3)[nH]c2c1 | 33.8 | 
O=C(Nc1cccc(Cl)c1)C(=O)C(C(=O)c1ccc2ccccc2c1)C1OC(=O)c2ccccc21 (configuration not stated) | 59.6 | 
CC1=Cc2cccc(C)c2C(=O)C1=O | 34.2 | 
Cc1ccc(C)c(NC(=O)c2cccc([N+](=O)[O-])c2O)c1 | > 100 | 
COC(=O)c1ccc2c(c1)C(=O)c1c-2n(CCCN=[N+]=[N-])c(=O)c2cc(OC)c(OC)cc12 | > 100 | > 100
COCC(OC)C(CC=C(C#N)C#N)OC (configuration not stated) | > 100 | 
NC1CCN(Cc2ccccc2)CC1 | > 100 | > 100
N#Cc1nn(-c2cc(=O)[nH]c3ccc(Cl)cc23)c(N)c1C#N | > 100 | > 100
On1c(-c2ccccc2)c(-c2ccccc2N2CCCC2)c2ccccc21 | > 100 | 
N#CC(C(=O)/C(=N\NC(N)=O)C(C#N)c1ccc(Cl)cc1)c1ccc(Cl)cc1 (configuration not stated) | > 100 | 
CC(C)(C)c1cc(C(P(=O)(O)O)P(=O)(O)O)cc(C(C)(C)C)c1O | > 100 | 
CC(C)C1=Cc2ccc3c(c2C(=O)C1=O)CCCC3(C)C | 33.8 | 
Nc1ncn([C@@H]2O[C@H](CO)[C@@H](O)[C@H]2O)c(=O)n1 | > 100 | 2.57

Structure (SMILES) | TGI [µM] | GI50 [µM]
COc1c(O)c2c(=O)cc3c4c5c(cc(=O)c6c(O)c(OC)c(CC(C)O)c(c(c1CC(C)O)c24)c65)OCO3 (configuration not stated) | 9.13 | 
COc1ccc(CCN(C)C2CCC(C#N)(c3ccc(OC)c(OC)c3)CC2)cc1OC (configuration not stated) | > 100 | 
C=CCC1(c2ccc(OC)cc2)C=CC(=O)CC1 (configuration not stated) | > 100 | 
COC(=O)[C@]12CC[C@@H](C)[C@H](C)[C@@H]1C1=CC[C@@H]3[C@@]4(C)C[C@@H](O)[C@H](O)[C@@](C)(CO)C4=CC[C@@]3(C)[C@]1(C)CC2 | 35.3 | 18.3
COc1ccc(C(=O)Nc2ccc(O)c(=O)cc2)cc1 | > 100 | 
Cc1nc(N)sc1N=Nc1ccccc1Br | > 90.5 | 
CCOC(=O)c1nc2c(OC)nn(O)cc-2c1[N+](=O)[O-] | 33.7 | 
C/C(CC(=O)Nc1ccc(C)c(C)c1)=N\N(c1ccccc1)c1ccccc1 | > 100 | 
COC(=O)/C(=N\NC(N)=S)C(C(=O)OC)C(=O)C(=O)Nc1ccc(C)cc1 (configuration not stated) | > 100 | 
O=C(/C(=C/c1ccc(Cl)cc1)c1ccccc1)c1ccccc1 | 42.3 | 
CC1(C)COC(c2cccc3c2C(=O)c2cccc(Cl)c2-3)=N1 | > 100 | 
CN(C)CCC(/C=C/c1ccccc1)=N\Nc1ccccc1 | 3.97 | 
C/C(N=NC(=S)N1CC2CCC(CC2)C1)=C1\C=CC=CN1O | > 100 | 
c1ccc2c(OCCSCCCCCCCCCCSCCOc3cccc4ccccc34)cccc2c1 | > 100 | 
Cc1cc2c(=O)c3ccccc3[nH]c2c(C(N)=O)c1C | > 100 | 
CN1CCC(=O)/C(=C/c2ccccc2)C1 | 29.3 | 

These molecules were tested on PC-3 prostate (assay: NCI tumour cell line growth inhibition, 48 h).

Structure (SMILES) | GI50 [µM] | TGI [µM]
COc1ccc(-c2nnc3n(C)c(=O)c4ccccc4n23)cc1N | 2.65 | > 100
CN(C)C1CCN(C(=O)c2ccc(NC(=O)Nc3ccc(-c4nc(N5CCOCC5)c5cccn5n4)cc3)cc2)CC1 | 0.0397 | 2.1
CCOC(=O)N[C@H]1CCc2cc(OC)c(OC)c(OC)c2-c2ccc(SC)c(=O)cc21 |  | > 100
COC(=O)c1ccc2c(c1)C(=O)c1c-2n(CCCN=[N+]=[N-])c(=O)c2cc(OC)c(OC)cc12 | > 100 | > 100
NC1CCN(Cc2ccccc2)CC1 | > 100 | > 100
N#Cc1nn(-c2cc(=O)[nH]c3ccc(Cl)cc23)c(N)c1C#N | > 100 | > 100
Nc1ncn([C@@H]2O[C@H](CO)[C@@H](O)[C@H]2O)c(=O)n1 | 2.17 | > 100
C=CCC1(c2ccc(OC)cc2)C=CC(=O)CC1 (configuration not stated) |  | > 100
COC(=O)[C@]12CC[C@@H](C)[C@H](C)[C@@H]1C1=CC[C@@H]3[C@@]4(C)C[C@@H](O)[C@H](O)[C@@](C)(CO)C4=CC[C@@]3(C)[C@]1(C)CC2 | 12.9 | 27.5
COc1ccc(C(=O)Nc2ccc(O)c(=O)cc2)cc1 |  | > 100
Cc1nc(N)sc1N=Nc1ccccc1Br |  | 63
C/C(N=NC(=S)N1CC2CCC(CC2)C1)=C1\C=CC=CN1O |  | 45.4
O=C(Nc1cccc(C(F)(F)F)c1)c1ccc(NC2=C(Cl)C(=O)N(Cc3ccc(Cl)cc3Cl)C2=O)cc1 | 4.64 | 15.2

Each molecule was assayed on UACC-62 melanoma (assay: NCI tumour cell line growth inhibition, 48 h).

Structure (SMILES) | TGI | GI50 [µM]
COC(=O)C(=Cc1cc(OC)c(OC)c(OC)c1-c1cc2c(cc1C1(C)OCCS1)OCO2)C(=O)OC (configuration not stated) | > 100 µM | 
C#CC1/C(=C\C(=O)OC)CCCC1O (configuration not stated) | > 100 µM | 
CC12CCC(=O)C[C@H]1CCC(OC=O)C2Br (some centres not stated) | > 100 µM | 
CN(C)C1CCN(C(=O)c2ccc(NC(=O)Nc3ccc(-c4nc(N5CCOCC5)c5cccn5n4)cc3)cc2)CC1 | 0.287 µM | 0.0444
COc1ccc(OCC(=O)O)c2c1CCCC2=O | > 100 µM | 
Cc1nc(Nc2ccc(Cl)cc2)sc1C(=O)NNC(=S)NN | 33.7 µM | 
CCOC(=O)N[C@H]1CCc2cc(OC)c(OC)c(OC)c2-c2ccc(SC)c(=O)cc21 | 70.7 µM and > 100 µM | 
COc1ccc2c(c1OCC(=O)O)C(=O)C(CCC(=O)O)CC2 (configuration not stated) | > 100 µM | 
Cc1ccc2nc(/C(=C/c3ccc(/C=C(\NC(=O)c4ccccc4)c4nc5ccc(C)cc5[nH]4)c(C)c3)NC(=O)c3ccccc3)[nH]c2c1 | 13.1 µM | 
COC1C(OC(=S)Nc2ccccc2)c2ccccc2N1C(C)=O (configuration not stated) | > 100 µM | 
O=C(Nc1cccc(Cl)c1)C(=O)C(C(=O)c1ccc2ccccc2c1)C1OC(=O)c2ccccc21 (configuration not stated) | 40.6 µM | 
CC1=Cc2cccc(C)c2C(=O)C1=O | 10.7 µM | 
Cc1ccc(C)c(NC(=O)c2cccc([N+](=O)[O-])c2O)c1 | 82.9 µM | 
COC(=O)c1ccc2c(c1)C(=O)c1c-2n(CCCN=[N+]=[N-])c(=O)c2cc(OC)c(OC)cc12 | > 100 µM | > 100
COCC(OC)C(CC=C(C#N)C#N)OC (configuration not stated) | > 100 µM | 
NC1CCN(Cc2ccccc2)CC1 | > 100 µM | > 100
N#Cc1nn(-c2cc(=O)[nH]c3ccc(Cl)cc23)c(N)c1C#N | > 100 µM | > 100
On1c(-c2ccccc2)c(-c2ccccc2N2CCCC2)c2ccccc21 | > 100 µM | 
N#CC(C(=O)/C(=N\NC(N)=O)C(C#N)c1ccc(Cl)cc1)c1ccc(Cl)cc1 (configuration not stated) | > 100 µM | 

Structure (SMILES) | TGI | GI50 [µM]
CC(C)(C)c1cc(C(P(=O)(O)O)P(=O)(O)O)cc(C(C)(C)C)c1O | > 100 µM | 
CC(C)C1=Cc2ccc3c(c2C(=O)C1=O)CCCC3(C)C | 15.2 µM | 
Nc1ncn([C@@H]2O[C@H](CO)[C@@H](O)[C@H]2O)c(=O)n1 | 8.67 µM | 0.658
CSc1nc(SC)c2c(C#N)[nH]nc2n1 | > 100 µM | 
COc1c(O)c2c(=O)cc3c4c5c(cc(=O)c6c(O)c(OC)c(CC(C)O)c(c(c1CC(C)O)c24)c65)OCO3 (configuration not stated) | 3.79 µM | 
COc1ccc(CCN(C)C2CCC(C#N)(c3ccc(OC)c(OC)c3)CC2)cc1OC (configuration not stated) | > 100 µM | 
C=CCC1(c2ccc(OC)cc2)C=CC(=O)CC1 (configuration not stated) | > 100 µM | 
COc1ccc(C(=O)Nc2ccc(O)c(=O)cc2)cc1 | > 100 µM | 
Cc1nc(N)sc1N=Nc1ccccc1Br | 45.4 µM | 
CCOC(=O)c1nc2c(OC)nn(O)cc-2c1[N+](=O)[O-] | 40.5 µM | 
C/C(CC(=O)Nc1ccc(C)c(C)c1)=N\N(c1ccccc1)c1ccccc1 | 57.4 µM | 
COC(=O)/C(=N\NC(N)=S)C(C(=O)OC)C(=O)C(=O)Nc1ccc(C)cc1 (configuration not stated) | > 100 µM | 
O=C(OC1CCC(=C2SCCCS2)[C@H]1C1SCCCS1)c1ccccc1 (some centres not stated) | > 100 µM | 
O=C1CCC2(c3ccc(Cl)cc3)Nc3cc(Cl)ccc3N12 (configuration not stated) | 21.2 µM | 
O=C(/C(=C/c1ccc(Cl)cc1)c1ccccc1)c1ccccc1 | 29.4 µM | 
CC1(C)COC(c2cccc3c2C(=O)c2cccc(Cl)c2-3)=N1 | > 100 µM | 
CN(C)CCC(/C=C/c1ccccc1)=N\Nc1ccccc1 | 3.26 µM | 
C/C(N=NC(=S)N1CC2CCC(CC2)C1)=C1\C=CC=CN1O | 29.3 µM | 
CCOC(=O)c1ccc(/C(C)=N/NC(N)=S)cc1 | > 100 µM | 
